Among the data in patent US20120135989A1, “AZAINDOLE DERIVATIVE” (CRYSTALGENOMICS, INC., priority 2010, published 2012) are IC50 values, retold here.

One may read the IC50 as the concentration that gives 50% inhibition.

For test [1], the target named is T1, human Cdc7/human ASK conjugated protein (Homo sapiens, UniProt O00311).
T1 construct: purchased CARNA BIOSCIENCES
Put plainly: Cdc7 protein kinase inhibitory action (Cdc7-ASK kinase activity, 32P-labeled MCM2). Format: biochemical. Conditions: substrate mouse MCM2-4(his)-6-7(his) conjugated protein, 0.1 mM ATP, 30° C. for 45 minutes; read-out: Activity (uM) ELISA (IC50). The protocol: Cdc7 protein kinase inhibitory action of the (di)azaindole derivatives shown in Table 4 was evaluated according to the following operations.
As a substrate for evaluating the enzymatic activity, mouse MCM2-4(his)-6-7 (his) conjugated protein was synthesized. First, the following genes were cloned into a pAcUW31 vector (Pharmingen).
Mouse MCM2 (Genbank/EMBL No. D86725);
N-His-mouse MCM4 (Genbank/EMBL No. D26089, a His6 tag was added to an N-terminal);
Mouse MCM6 (Genbank/EMBL No. D86726), and
N-His-mouse MCM7 (Genbank/EMBL No. D26091, a His6 tag was added to an N-terminal).
The Mouse MCM2 gene and the N-His-mouse MCM7 gene were inserted into the BamHI site and the EcoRI site of the pAcUW31 vector (Mom2-7 Vector), respectively. The mouse MCM6 gene and the N-His-mouse MCM4 gene were inserted into the BamHI site and the EcoRI site of the pAcUW31 vector (MGm-4-6 Vector), respectively. Then, in order to produce a recombinant mouse MCM2-7 (his) and mouse MCM4 (his)-6 Baculovirus, BaculoGold AoNPV Baculovirus DNA (BD/Pharmingen) and an Mcm2-7 Vector or an Mcm-4-6 Vector were cotransfected to SD insect cells. The obtained Mcm2-7 and Mom-4-6 virus were coinfected to Hi5 insect cells. Thereby, a mouse MCM2-4 (his)-6-7 (his) conjugated protein was obtained. Purified mouse MCM2-4 (his)-6-7 (his) conjugated protein (0.5 μg) was used as a substrate.
The substrate (mouse MCM2-4(his)-6-7(his) conjugated protein) (0.5 μg) and kinase enzyme (human Cdc7/human ASK conjugated protein, CARNA BIOSCIENCES) (0.1 μg) were mixed in a microtube. A kinase reaction buffer containing 0.1 μL of γ-^32P ATP (Perkin Elmer) was added as a tracer into the same microtube. The composition of the kinase buffer includes the followings.
40 mM HEPES-KOH buffer pH 7.6,
Furthermore, 0.5 μL of each of the test compounds ((di)azaindole derivatives 10 μM, 100 μM, and 1000 μM, respectively) was added and reacted at 30° C. for 45 minutes. After the reaction, the substrate was separated by SDS-PAGE method, and protein was stained by the silver staining method (2D-silver staining reagent H “Daiichi,” Daiichi Pure Chemicals Co., Ltd.).
The radioactivity of ^32P-labeled MCM2 protein was detected by autoradiography, and the radioactivity of the band of MCM2 protein was measured by a liquid scintillation counter (LSC-6100, ALOKA). As to the Cdc7-ASK kinase activity, the radioactivity at the time when the each of the test compounds was added was calculated in percent when the radioactivity at the time when DMSO (0.5 μL) was added instead of the test compound (0.5 μL) that had been added immediately before the reaction was made to be 100%. Based on the obtained results, IC 50 value of each test compound was calculated. IC50 with respect to Cdc7-ASK kinase of the main (di)azaindole derivatives shown in Table 5 was about 0.001 μM to 0.008 μM.

For test [2], the target named is T1, human Cdc7/human ASK conjugated protein. Described as above. In kind it is biochemical. Conditions: substrate mouse MCM2-4(his)-6-7(his) conjugated protein, 0.1 mM ATP, 30° C. for 45 minutes; read-out: Activity (uM) ELISA (IC50). This is another data set of the same source.

Read-outs that look alike come from different tables or passages of the source.

T1 sequence (O00311 whole entry): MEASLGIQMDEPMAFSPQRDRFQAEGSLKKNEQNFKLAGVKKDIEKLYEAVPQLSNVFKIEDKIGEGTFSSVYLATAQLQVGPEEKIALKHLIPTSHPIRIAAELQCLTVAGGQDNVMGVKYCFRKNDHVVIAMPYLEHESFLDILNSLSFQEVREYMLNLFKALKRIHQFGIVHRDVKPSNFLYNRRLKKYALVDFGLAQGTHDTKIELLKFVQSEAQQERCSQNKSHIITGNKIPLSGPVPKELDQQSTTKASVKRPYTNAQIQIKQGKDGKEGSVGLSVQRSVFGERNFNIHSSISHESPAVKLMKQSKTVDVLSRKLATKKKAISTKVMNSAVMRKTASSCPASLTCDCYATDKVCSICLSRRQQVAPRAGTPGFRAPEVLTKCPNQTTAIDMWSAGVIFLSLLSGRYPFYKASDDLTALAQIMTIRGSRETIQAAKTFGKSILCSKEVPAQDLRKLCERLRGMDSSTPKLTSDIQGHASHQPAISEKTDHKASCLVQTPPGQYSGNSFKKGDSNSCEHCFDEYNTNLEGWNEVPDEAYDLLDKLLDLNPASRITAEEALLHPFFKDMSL
T1 sequence (Q9UBU7 whole entry partner): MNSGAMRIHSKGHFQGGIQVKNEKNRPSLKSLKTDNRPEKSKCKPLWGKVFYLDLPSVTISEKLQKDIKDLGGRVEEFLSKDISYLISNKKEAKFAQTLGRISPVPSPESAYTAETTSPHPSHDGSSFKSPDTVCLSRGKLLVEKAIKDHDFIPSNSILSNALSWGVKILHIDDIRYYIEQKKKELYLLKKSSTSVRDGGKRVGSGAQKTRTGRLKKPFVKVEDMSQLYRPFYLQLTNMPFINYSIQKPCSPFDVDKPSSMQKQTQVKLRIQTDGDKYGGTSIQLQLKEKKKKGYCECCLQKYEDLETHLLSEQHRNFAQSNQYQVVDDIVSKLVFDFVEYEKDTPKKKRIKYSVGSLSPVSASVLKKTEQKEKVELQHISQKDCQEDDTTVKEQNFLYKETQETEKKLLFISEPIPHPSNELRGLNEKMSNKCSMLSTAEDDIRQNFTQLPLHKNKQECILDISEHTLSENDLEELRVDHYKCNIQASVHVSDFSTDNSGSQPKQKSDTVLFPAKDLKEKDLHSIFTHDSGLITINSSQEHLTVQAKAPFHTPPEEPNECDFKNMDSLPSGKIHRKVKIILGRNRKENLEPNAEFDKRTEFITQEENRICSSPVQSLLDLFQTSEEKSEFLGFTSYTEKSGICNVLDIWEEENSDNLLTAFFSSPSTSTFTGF

In the case of `Cc1cc(OCCN(C)C)ccc1/N=C1/NC(=O)/C(=C/c2c[nH]c3ncccc23)S1` [Compound 5, (2Z,5Z)-2-{4-(2-dimethylamino)ethoxy-2-methylphenyl}azamethylene-5-(1H-pyrrolo[2,3-b]pyridin-3-yl)methylene-1,3-thiazolidin-4-one], the half-inhibitory concentration (IC50) in test [1] worked out at 0.0019 µM.

`CN(C)CCOc1ccc(/N=C2/NC(=O)/C(=C/c3c[nH]c4ncccc34)S2)c(C(F)(F)F)c1` [Compound 13, (2Z,5Z)-2-{4-(2-dimethylamino)ethoxy-2-trifluoromethylphenyl}azamethylene-5-(1H-pyrrolo[2,3-b]pyridin-3-yl)methylene-1,3-thiazolidin-4-one]: the IC50 in test [1] was found to be 0.003 µM.

Turning to `Cc1cc(OC2CCN(C)C2)ccc1/N=C1/NC(=O)/C(=C/c2c[nH]c3ncccc23)S1` (centres unmarked) [Compound 6, (2Z,5Z)-2-{4-(1-methylpyrrolidin-3-yl)oxy-2-methylphenyl}azamethylene-5-(1H-pyrrolo[2,3-b]pyridin-3-yl)methylene-1,3-thiazolidin-4-one], in test [1], the IC50 was 0.003 µM.

For `Cc1ccc(/N=C2/NC(=O)/C(=C/c3c[nH]c4ncccc34)S2)c(C)c1` [Compound 2, (2Z,5Z)-2-(2,4-dimethylphenyl)azamethylene-5-(1H-pyrrolo[2,3-b]pyridin-3-yl)methylene-1,3-thiazolidin-4-one], the IC50 in test [1] was determined as 0.001 µM.

As to `Cc1cc(OC2CCN(C)C2)ccc1/N=C1/NC(=O)/C(=C/c2c[nH]c3ncncc23)S1` (centres unmarked) [Compound 15, (2Z,5Z)-2-{4-(1-methylpyrrolidin-3-yl)oxy-2-methylphenyl}azamethylene-5-(7H-pyrrolo[2,3-d]pyrimidin-5-yl)methylene-1,3-thiazolidin-4-one], the IC50 in test [1] came out at 0.008 µM.

For `CN1CCC(Oc2ccc(/N=C3/NC(=O)/C(=C/c4c[nH]c5ncccc45)S3)c(Cl)c2)C1` (centres unmarked) [Compound 12, (2Z,5Z)-2-{2-chloro-4-(1-methylpyrrolidin-3-yl)oxyphenyl}azamethylene-5-(1H-pyrrolo[2,3-b]pyridin-3-yl)methylene-1,3-thiazolidin-4-one], the IC50 in test [1] was found to be 0.001 µM.

As for `Cc1cc(O)ccc1/N=C1/NC(=O)/C(=C/c2c[nH]c3ncccc23)S1` [Compound 3, (2Z,5Z)-2-(4-hydroxy-2-methylphenyl)azamethylene-5-(1H-pyrrolo[2,3-b]pyridin-3-yl)methylene-1,3-thiazolidin-4-one], the IC50 in test [1] was determined as 0.0014 µM.

Regarding `Cc1cc(OCCN2CCOCC2)ccc1/N=C1/NC(=O)/C(=C/c2c[nH]c3ncccc23)S1` [Compound 9, (2Z,5Z)-2-{4-(2-morpholino)ethoxy-2-metlhylphenyl}azamethylene-5-(1H-pyrrolo[2,3-b]pyridin-3-yl)methylene-1,3-thiazolidin-4-one], the IC50 in test [2] was found to be 0.0017 µM.

As to `CN1CCC(Oc2ccc(/N=C3/NC(=O)/C(=C/c4c[nH]c5ncncc45)S3)c(C(F)(F)F)c2)C1` (centres unmarked) [Compound 20, (2Z,5Z)-2-{4-(1-methylpyrrolidin-3-yl)oxy-2-trifluoromethylphenyl}azamethylene-5-(7H-pyrrolo[2,3-d]pyrimidin-5-yl)methylene-1,3-thiazolidin-4-one], the IC50 in test [1] is 0.007 µM.

On to `CN1CCC(Oc2ccc(/N=C3/NC(=O)/C(=C/c4c[nH]c5ncccc45)S3)c(C(F)(F)F)c2)CC1` [Compound 23, (2Z,5Z)-2-{4-(1-methyl-piperidin-4-yl)oxy-2-trifluoromethylphenyl}azamethylene-5-(1H-pyrrolo[2,3-b]pyridm-3-yl)methylene-1,3-thiazolidin-4-one], for which the IC50 in test [1] was 0.003 µM.

As for `CN1CCC(Oc2ccc(/N=C3/NC(=O)/C(=C/c4c[nH]c5ncncc45)S3)c(Cl)c2)C1` (centres unmarked) [Compound 18, (2Z,5Z)2-{2-chloro-4-(1-methylpyrrolidin-3-yl)oxyphenyl}azamethylene-5-(7H-pyrrolo[2,3-d]pyrimidin-5-yl)methylene-1,3-thiazolidin-4-one], the half-maximal inhibitory concentration (IC50) in test [1] turned out to be 0.002 µM.

For the molecule `CN(C)CCOc1ccc(/N=C2/NC(=O)/C(=C/c3c[nH]c4ncncc34)S2)c(Cl)c1` [Compound 17, (2Z,5Z)-2-{2-chloro-4-(2-dimethylamino)ethoxyphenyl}azamethylene-5-(7H-pyrrolo[2,3-d]pyrimidin-5-yl)methylene-1,3-thiazolidin-4-one], the IC50 in test [1] amounted to 0.002 µM.

Regarding `Cc1cc(OCCN2CCN(C)CC2)ccc1/N=C1/NC(=O)/C(=C/c2c[nH]c3ncccc23)S1` [Compound 7, (2Z,5Z)-2-[4-{2-(4-methylpiperazin-1-yl)}ethoxy-2-methylphenyl]azamethylene-5-(1H-pyrrolo[2,3-b]pyridin-3-yl)methylene-1,3-thiazolidin-4-one], in test [1], the IC50 worked out at 0.0021 µM.

With `CN1CCC(Oc2ccc(/N=C3/NC(=O)/C(=C/c4c[nH]c5ncccc45)S3)c(C(F)(F)F)c2)C1` (centres unmarked) [Compound 14, (2Z,5Z)-2-{4-(1-methylpyrrolidin-3-yl)oxy-2-trifluoromethylphenyl}azamethylene-5-(1H-pyrrolo[2,3-b]pyridin-3-yl)methylene-1,3-thiazolidin-4-one], in test [1], the IC50 is 0.002 µM.

On to `CN(C)CCOc1ccc(/N=C2/NC(=O)/C(=C/c3c[nH]c4ncncc34)S2)c(C(F)(F)F)c1` [Compound 19, (2Z,5Z)-2-{4-(2-dimethylamino)ethoxy-2-trifluoromethylphenyl}azamethylene-5-(7H-pyrrolo[2,3-d]pyrimidin-5-yl)methylene-1,3-thiazolidin-4-one], for which the IC50 in test [1] stood at 0.006 µM.

`CN1CCC(Oc2ccc(/N=C3/NC(=O)/C(=C/c4c[nH]c5ncncc45)S3)c(Cl)c2)CC1` [Compound 21, (2Z,5Z)-2-{2-chloro-4-(1-methyl-piperidin-4-yl)oxyphenyl}azamethylene-5-(7H-pyrrolo[2,3-d]pyrimidin-5-yl)methylene-1,3-thiazolidin-4-one]: in test [1], the IC50 was 0.003 µM.

Consider `Cc1cc(OC2CCN(C)CC2)ccc1/N=C1/NC(=O)/C(=C/c2c[nH]c3ncncc23)S1` [Compound 16, (2Z,5Z)-2-{4-(1-methyl-piperidin-4-yl)oxy-2-methylphenyl}azamethylene-5-(7H-pyrrolo[2,3-d]pyrimidin-5-yl)methylene-1,3-thiazolidin-4-one], for which the half-inhibitory concentration (IC50) in test [1] amounted to 0.006 µM.

On to `O=C1N/C(=N/c2ccc(C(=O)O)cc2)S/C1=C\c1c[nH]c2ncccc12` [Compound 4, (2Z,5Z)-2-(4-carboxyphenyl)azamethylene-5-(1H-pyrrolo[2,3-b]pyridin-3-yl)methylene-1,3-thiazolidin-4-one], for which the IC50 in test [1] was found to be 0.018 µM.

Regarding `COc1ccc(/N=C2/NC(=O)/C(=C/c3c[nH]c4ncccc34)S2)c(C)c1` [Compound 1, (2Z,5Z)-2-(4-methoxy-2-methylphenyl)azamethylene-5-(1H-pyrrolo[2,3-b]pyridin-3-yl)methylene-1,3-thiazolidin-4-one], the IC50 in test [1] turned out to be 0.0012 µM.

For “(2Z,5Z)-2-{4-(1-methyl-piperidin-4-yl)oxy-2-methylphenyl}azamethylene-5-(1H-pyrrolo[2,3-b]pyridin-3-yl)methylene-1,3-thiazolidin-4-one [Compound 8]”, the IC50 in test [2] is 0.0011 µM.

`CN1CCC(Oc2ccc(/N=C3/NC(=O)/C(=C/c4c[nH]c5ncccc45)S3)c(Cl)c2)CC1` [Compound 22, (2Z,5Z)-2-{2-chloro-4-(1-methyl-piperidin-4-yl)oxyphenyl}azamethylene-5-(1H-pyrrolo[2,3-b]pyridin-3-yl)methylene-1,3-thiazolidin-4-one]: the IC50 in test [1] was found to be 0.001 µM.

As to `Cc1cc(OCCN(C)C)ccc1/N=C1/NC(=O)/C(=C/c2c[nH]c3ncncc23)S1` [Compound 11, (2Z,5Z)-2-{4-(2-dimethylamino)ethoxy-2-methylphenyl}azamethylene-5-(7H-pyrrolo[2,3-d]pyrimidin-5-yl)methylene-1,3-thiazolidin-4-one], in test [1], the IC50 was found to be 0.005 µM.

In the case of `CN(C)CCOc1ccc(/N=C2/NC(=O)/C(=C/c3c[nH]c4ncccc34)S2)c(Cl)c1` [Compound 10, (2Z,5Z)-2-{2-chloro-4-(2-dimethylamino)ethoxyphenyl}azamethylene-5-(1H-pyrrolo[2,3-b]pyridin-3-yl)methylene-1,3-thiazolidin-4-one], in test [1], the IC50 was found to be 0.002 µM.
